Data taken from patent US20230159436A1, “APPLICATIONS OF AMIDE ANALOGS OF TRITERPENES IN CURES OF CANCER AND OTHER DISEASES” (Pacific Arrow Limited, priority 2021, published 2023).
Like-named read-outs stand apart in the source and are kept apart here.

Key:
[1] = tested on: U2OS, H460, HTB-9, ES2, HCT116, Capan, OVCAR3, DU145, SK-Mel-5, KB, A498, MCF-7, HepG2, T98G, K562, HeLa; test: MTT Cytotoxic Assay of reaction products and isolated compounds; format: cell-based
From the text: The peaks, fractions and compounds are selected according to the activities of times studies and the changes of peaks. Selecting the HPLC fractions for isolation is according to the cytotoxic activity of the reaction product obtained at a specific time. The compounds having strong to weak activities are selected and isolated. Selecting the HPLC fractions for isolation may be according to the cytotoxic activity of times studies and the change of peaks. The anti cancer activities are the MTT studies of bone (U2OS), lung (H460), bladder (HTB-9), ovary (ES2), colon (HCT116), pancreas (Capan), ovary (OVCAR3), prostate (DU145), skin (SK-Mel-5), mouth (KB), kidney (A498), breast (MCF-7), liver (HepG2), brain (T98G), luekemia (K562), cervix (HeLa).
Esterification, amidation, amination, or sulfonamidation of compound (A), (B), (C), (D1), (D2), (E), (F), (G), (H1), (H2), E4A, E4A2Y, E4D, E4D1, (P1), P(2), terpene, isoprene, triterpenes, hydroxylated triterpenes, with acyl halide, wherein the halide comprise chloride, bromide, fluoride and iodide, wherein the acyl halide comprise acyl chloride, wherein acyl chloride comprise tigloyl chloride, angeloyl chloride, acetyl chloride, crotonoyl chloride, 3,3-dimethylartyloyl chloride, senecioyl chloride, cinnamoyl chloride, pentenoyl chloride, hexanoyl chloride, benzoyl chloride, ethylbutyryl chloride, propionyl chloride, 2-propenoyl chloride, isobutyryl chloride, butyryl chloride, (2E)-2-pentenoyl chloride, 4-Pentenoyl chloride, 5-hexenoyl chloride, heptanoyl chloride, octanoyl chloride, nonanoyl chloride, decanoyl chloride, Lauroyl chloride, myristoyl chloride, oleoyl chloride. The compounds vary in composition when the time or temperature of the reaction is changed. The peaks, fractions and compounds are selected according to the activities of times studies and the changes of peaks. The compounds having strong to weak activities are selected and isolated. The anti cancer activities (Cytotoxic Assay) are the MTT studies of bone (U2OS), lung (H460), bladder (HTB-9), ovary (ES2), colon (HCT116), pancreas (Capan), ovary (OVCAR3), prostate (DU145), skin (SK-Mel-5), mouth (KB), kidney (A498), breast (MCF-7), liver (HepG2), brain (T98G), luekemia (K562), cervix (HeLa). The active esterification, amidation, amination, or sulfonamidation products are purified with HPLC. The reaction product of mixtures and individual compounds are tested with MTT Cytotoxic Assay. Details of method are in Experiment 3 of the present application. A second esterification of compound can be selected from the above experiment results to produce new active compounds. A partial esterification compound is selected from the above experiments to perform a second or repeated with a third esterification with different acyl chloride in order to produce new active compounds with the experiments in the present application. The active compounds of this invention are triterpenes in form of amine, sulfonamides, amide, and urea analogs, providing extremely stable activity in solution. They prolong the activities and duration of drug in a subject.
(§1) Cells. HTB-9 (bladder), HeLa-S3 (cervix), DU145 (prostate), H460 (lung), MCF-7 (breast), K562 (leukemia), HCT116 (colon), HepG2 (liver), U2OS (bone), T98G (brain), SK-MEL-5 (Skin) and OVCAR 3, ES2 (ovary), Pancreas (Capan), Mouth (KB), Kidney (A498).
MTT Assay. The procedure for MTT assay followed the method described by Carmichael et al. (1987) with modifications. The cells were seeded into a 96-well plate at for 24 hours before drug-treatment. The cells were then exposed to the drugs for 48, 72, or 96 hours. After the drug-treatment, MTT (0.5 mg/mL) was added to cultures and incubated for an hour. The formazan (product of the reduction of tetrazolium by viable cells) formed and was dissolved with DMSO and the O.D. at 490 nm, and was measured by an ELISA reader. The MTT level of the cells before drug-treatment was also measured (T0). […]

[2] = tested on: red blood cells (RBC); test: Haemolytic assay; format: cell-based, human
Experimental: Erythrocytes (RBC) were isolated from human blood (EDTA whole blood, collected randomly). 50 ul of the 10% RBC suspension (in PBS) was added to 2 ml of sample solutions (concentration range from 0.1 ug/ml to 400 ug/ml) in PBS. The mixture was vortexed briefly and sat for 60 min at room temperature. The mixture was spun at 3K for 10 min and the relative amounts of lysed hemoglobin in the supernatant were measured at 540 nm. The synthetic compounds of present application were tested with this method.

[3] = tested on: cancer growth, cancer invasion, cells invasion or cancer cell invasion; test: Inhibition of cancer growth and invasion (anti-cancer activity); format: cell-based
From the text: The program is based on the purification methods and biological assays including the MTT assay as described in International Application No. PCT/US05/31900, filed Sep. 7, 2005, U.S. Ser. No. 11/289,142, filed Nov. 28, 2005, and U.S. Ser. No. 11/131,551, filed May 17, 2005, and PCT/US2008/002086, 1188-ALA-PCT, filed Feb. 15, 2008, Ser. No. 12/344,682, 1020-B1-US, filed Dec. 29, 2008, US009499577B2, filed Jun. 24, 2014. The details of Analysis of gene expression of ES2 cells after Y-treatment by Microarray, Data Analysis Methods and Western blot in PCT/US2008/002086, 1188-ALA-PCT, filed Feb. 15, 2008, and the cell invasion experiments methods in International Application PCT/US2010/0042240, filed Jul. 16, 2010.

[4] = tested on: OVCAR3; test: MTT assay, ovary (OVCAR3); format: cell-based
Experimental: as §1
MTT Assay. The procedure for MTT assay followed the method described by Carmichael et al. (1987) with modifications. The cells were seeded into a 96-well plate at for 24 hours before drug-treatment. The cells were then exposed to the drugs for 48, 72, or 96 hours. After the drug-treatment, MTT (0.5 mg/mL) was added to cultures and incubated for an hour. The formazan (product of the reduction of tetrazolium by viable cells) formed and was dissolved with DMSO and the O.D. at 490 nm, and was measured by an ELISA reader. The MTT level of the cells before drug-treatment was also measured (T0). The % cell-growth (% G) is calculated as: % G=(TD−T0/TC−T0)×100(1), where TC or TD represents O.D. readings of control or drug-treated cells.
When T0>TD, then the cytotoxicity (LC) expressed as % of the control is calculated as: % LC=(TD−T0/T0)×100(2).

Compound | anti-cancer activity [3] | Cytotoxicity activity [1] | also measured
CC1(C)CC2C3=CCC4[C@@]5(C)CC[C@H](O)[C@](C)(CO)C5CC[C@@]4(C)[C@]3(C)C[C@@H](O)[C@@]2(CO)[C@@H](O)[C@@H]1O (some centres unmarked) [E4A] | no anti-cancer activity | – | MTT cytotoxic activity ([1]; FIG. 8, FIG. 10): no activity; hemolytic activity [2]: no hemolytic activity; inhibiting cancer growth, cancer invasion, cells invasion or cancer cell invasion [3]: no effect
CC1(C)CC2C3=CCC4[C@@]5(C)CC[C@H](O[C@@H]6OC(C(=O)O)[C@@H](O)C(O[C@@H]7O[C@@H](CO)C(O)[C@@H]7O)[C@@H]6O[C@@H]6OC(CO)[C@H](O)C(O)[C@@H]6O)C(C)(C)C5CC[C@@]4(C)[C@]3(C)[C@@H](O)[C@@H](O)[C@@]2(CO)[C@@H](O)[C@@H]1O (some centres unmarked) [AKOH-Y, reference compound] | – | – | inhibiting cancer growth, cancer invasion, cells invasion or cancer cell invasion [3]: do not show the ability
CC1(C)CC2C3=CCC4C5(C)CCC(O)C(C)(CN)C5CCC4(C)C3(C)CC(O)C2(CN)C(O)C1O (centres unmarked) [E4D] | no anti-cancer activity | none and None | hemolytic activity [2]: no hemolytic activity; inhibiting cancer growth, cancer invasion, cells invasion or cancer cell invasion [3]: no effect
CC=C(C)C(=O)OCC1(C)C(O)CCC2(C)C1CCC1(C)C2CC=C2C3CC(C)(C)C(O)C(OC(=O)C(C)=CC)C3(CO)C(O)CC21C (centres unmarked) [Tig-Q] | have anti cancer activities | – | IC50 of ovary (OVCAR3) [4]: 23
CC1(C)CC2C3=CCC4C5(C)CCC(N)C(C)(CN)C5CCC4(C)C3(C)CC(N)C2(CN)C(N)C1N (centres unmarked) [E4D1] | no anti-cancer activity | none and moderate and NONE | Cytotoxicity activity ([1]; listed as E1E4D1): none; Cytotoxicity activity ([1]; listed as I 1E4D1): none; hemolytic activity [2]: no hemolytic activity; inhibiting cancer growth, cancer invasion, cells invasion or cancer cell invasion [3]: no effect
CC=C(C)C(=O)OCC1(C)C(OC(=O)C(C)=CC)CCC2(C)C1CCC1(C)C2CC=C2C3CC(C)(C)C(OC(=O)C(C)=CC)C(O)C3(CO)C(O)CC21C (centres unmarked) [Tig-U] | – | – | IC50 of ovary (OVCAR3) [4]: 27
CC1O[C@@H](O[C@H]2C(O)[C@@H](O)C(C)O[C@H]2O[C@H]2C(O)[C@@H](O)C(CO)O[C@H]2OC2[C@H](O)C(C(=O)O)O[C@@H](O[C@H]3CC[C@@]4(C)C(CC[C@]5(C)C4CC[C@]46O[C@H](O)[C@]7(C4CC(C)(C)[C@@H](O)[C@@H]7O)[C@H](O)C[C@]65C)C3(C)C)[C@H]2O[C@@H]2OC(CO)[C@H](O)C(O)[C@@H]2O)[C@@H](O)C(O)[C@H]1O (some centres unmarked) [AKOH-M10, reference compound] | – | – | inhibiting cancer growth, cancer invasion, cells invasion or cancer cell invasion [3]: do not show the ability
CC(C)=CC(=O)NCC1(C)C(N)CCC2(C)C1CCC1(C)C2CC=C2C3CC(C)(C)C(NC(=O)C=C(C)C)C(N)C3(CNC(=O)C=C(C)C)C(N)CC21C (centres unmarked) [BB4] | – | weak | –
CCC=CC(=O)NCC1(C)C(N)CCC2(C)C1CCC1(C)C2CC=C2C3CC(C)(C)C(N)C(N)C3(CNC(=O)C=CCC)C(N)CC21C (centres unmarked) [QQ1] | – | moderate | –
CC=C(C)C(=O)OCC1(C)C(O)CCC2(C)C1CCC1(C)C2CC=C2C3CC(C)(C)C(OC(=O)C(C)=CC)C(O)C3(COC(=O)C(C)=CC)C(O)CC21C (centres unmarked) [Tig-V] | have anti cancer activities | – | IC50 of ovary (OVCAR3) [4]: 9
CCCCCC(=O)NCC1(C)C(N)CCC2(C)C1CCC1(C)C2CC=C2C3CC(C)(C)C(NC(=O)CCCCC)C(N)C3(CN)C(N)CC21C (centres unmarked) [DD3] | – | moderate | –
CC1(C)CC2C3=CCC4C5(C)CCC(N)C(C)(CNC(=O)C=Cc6ccccc6)C5CCC4(C)C3(C)CC(N)C2(CNC(=O)C=Cc2ccccc2)C(N)C1N (centres unmarked) [JJ1] | – | moderate | –
CC(C)C(=O)NCC1(C)C(N)CCC2(C)C1CCC1(C)C2CC=C2C3CC(C)(C)C(NC(=O)C(C)C)C(N)C3(CNC(=O)C(C)C)C(N)CC21C (centres unmarked) [NN4] | – | weak | –
CC=CC(=O)NCC1(C)C(N)CCC2(C)C1CCC1(C)C2CC=C2C3CC(C)(C)C(NC(=O)C=CC)C(N)C3(CN)C(N)CC21C (centres unmarked) [I I3] | – | moderate | –
CC=C(C)C(=O)OCC1(C)C(O)CCC2(C)C1CCC1(C)C2CC=C2C3CC(C)(C)C(O)C(OC(=O)C(C)=CC)C3(COC(=O)C(C)=CC)C(O)CC21C (centres unmarked) [Tig-T] | have anti cancer activities | – | IC50 of ovary (OVCAR3) [4]: 25
C=CCCC(=O)NCC1(C)C(N)CCC2(C)C1CCC1(C)C2CC=C2C3CC(C)(C)C(N)C(N)C3(CNC(=O)CCC=C)C(N)CC21C (centres unmarked) [CC1] | – | moderate | –
CCCCCC(=O)NCC1(C)C(N)CCC2(C)C1CCC1(C)C2CC=C2C3CC(C)(C)C(N)C(N)C3(CNC(=O)CCCCC)C(N)CC21C (centres unmarked) [DD1] | – | moderate | –
CC=C(C)C(=O)OCC1(C)C(O)CCC2(C)C1CCC1(C)C2CC=C2C3CC(C)(C)C(O)C(O)C3(CO)C(O)CC21C (centres unmarked) [Tig-N] | have anti cancer activities | – | IC50 of ovary (OVCAR3) [4]: 18
CC(=O)NCC1(C)C(N)CCC2(C)C1CCC1(C)C2CC=C2C3CC(C)(C)C(NC(C)=O)C(N)C3(CN)C(N)CC21C (centres unmarked) [HH3] | – | moderate | –
CC1(C)CC2C3=CCC4C5(C)CCC(O)C(C)(CNC(=O)c6ccccc6)C5CCC4(C)C3(C)CC(O)C2(CNC(=O)c2ccccc2)C(O)C1O (centres unmarked) [KK2] | – | strong | –
CC1(C)CC2C3=CCC4C5(C)CCC(N)C(C)(CNC(=O)C=Cc6ccccc6)C5CCC4(C)C3(C)CC(N)C2(CNC(=O)C=Cc2ccccc2)C(N)C1NC(=O)C=Cc1ccccc1 (centres unmarked) [JJ4] | – | weak | –
C=CC(=O)NCC1(C)C(N)CCC2(C)C1CCC1(C)C2CC=C2C3CC(C)(C)C(N)C(N)C3(CNC(=O)C=C)C(N)CC21C (centres unmarked) [MM1] | – | moderate | –
CC1(C)CC2C3=CCC4C5(C)CCC(N)C(C)(CNC(=O)c6ccccc6)C5CCC4(C)C3(C)CC(N)C2(CNC(=O)c2ccccc2)C(N)C1N (centres unmarked) [KK1] | – | moderate | –
